Holding throughout (assay type): in vivo
One data set in a line: Toxicity profile. The settings on record: healthy BALB/cJ mice, intravenous weekly for 3 weeks, DM1 and DM1–Bdd 0.75 mg/kg of drug content, CIS 10 mg/kg.
A short description of a further data set: Nephrotoxicity study. Particulars: BALB/cJ mice, intravenous, 3 days after drug administration, ELISA, n = 3/group. (In general: An ELISA detects its analyte on a solid surface through an enzyme-linked reagent.)
The nature of data set [1]: Fluorescence imaging of Cy-peptide analogues. Particulars: SHO mice, tail-vein injection 0.5 nmol, images 1 and 4 hours; in words.

With `COc1cc2cc(c1Cl)N(C)C(=O)C[C@H](OC(=O)[C@H](C)N(C)C(=O)CCS)[C@]1(C)O[C@H]1[C@H](C)[C@@H]1C[C@@](O)(NC(=O)O1)[C@H](OC)/C=C/C=C(\C)C2` [DM1, N2'-deacetyl-N2'-(3-mercapto-1-oxopropyl)-maytansine], the “serum biochemical analysis for liver injury and renal function” value in “Toxicity profile” was “induced hepatic and renal toxicity”. The “hematology (blood cell counts and morphologic features)” value in the data set “Toxicity profile” (n = 4/group) is given as “reticulocytosis without apparent anemia”. For the same compound, the “KIM-1 and/or NGAL in urine” value in “Nephrotoxicity study” is “continued induction”.
Turning to `CO[C@@]12[C@H](COC(N)=O)C3=C(C(=O)C(C)=C(N)C3=O)N1C[C@@H]1N[C@@H]12` [MIT, mitomycin], in “Nephrotoxicity study”, the “KIM-1 and/or NGAL in urine” value is on record as “continued induction”.
Regarding Cyanine5.5 [free Cy], in data set [1], the “elimination and organ uptake by fluorescence imaging” value is listed as “mainly taken up by liver and/or other organs”.
With `Nc1ccn([C@@H]2O[C@H](CO)[C@@H](O)C2(F)F)c(=O)n1` [GEM, gemcitabine], the “KIM-1 and/or NGAL in urine” value in the data set “Nephrotoxicity study” is on record as “continued induction”.

The values are drawn from article PMC8983499 (Cancer Research, 2022).
